Reference: patent US20070092558A1, “Methods of Preparing Targeted Immunoliposomes” (priority 2005, published 2007)

Key:
[1] = system: MD-MBA 231 (breast cancer cells); test: cytotoxicity assay (ATPlite luminescence), 1 h treatment then 72 h incubation; conditions: MD-MBA 231 cells, 0-18 μg/ml [DOX], FIG. 3A
[2] = system: A431 (epidermoid cancer cells); conditions: 0-18 μg/ml [DOX], 1-hour treatment, 72-hour incubation, FIG. 3B

## COc1cccc2c1C(=O)c1c(O)c3c(c(O)c1C2=O)C[C@@](O)(C(=O)CO)C[C@@H]3O[C@H]1C[C@H](N)[C@H](O)[C@H](C)O1 [free doxorubicin, doxorubicin]
[1]
  cytotoxicity (cell viability): concentration effects on cell viability
[2]
  cytotoxicity (cell viability): concentration effects on cell viability
